Values joined by “and” are separate entries in the source; they are usually repeats but may differ in a detail not shown here. Equal values may be shown once.
Assays:
[1] = Dose-response of LHGFR expressed in digitonin-permeabilized HEK293FT cells for L-2-HG; assay type: cell-based, human (HEK293FT cells)
Description: To characterize the sensitivity and specificity of LHGFR expressed in HEK293FT cells, cells were trypsinized 48 h following transfection and suspended in 1× Hank’s balanced salt solution supplemented with 20 mM HEPES. […] Digitonin at a concentration of 10 μM was used to induce cell permeabilization and deplete intracellular L-2-HG for in vivo response curves construction. Then, the fluorescence intensities were determined by a SpectraMax i3 fluorescence plate reader (Molecular Devices, USA) with excitation at 430 nm and emission at 485 nm (mTFP) and 528 nm (Venus). Basal L-2-HG concentration in HEK293FT cells under physiological conditions was determined by substituting the emission ratios of non-permeabilized HEK293FT cells into the calibrated in vivo response curves.

[2] = Dose-response of purified LHGFR and its variants for L-2-HG in 50 mM Tris-HCl buffer (pH 7.4), Venus/mTFP emission ratio; assay type: binding; settings: For L-2-HG
Description: Purified L-2-HG biosensors and different compounds were diluted by 50 mM Tris-HCl buffer (pH 7.4), mixed together in a black 96-well plate at a volume ratio of 3:1, and the fluorescence intensities were measured using an EnSight microplate reader (PerkinElmer, USA) with excitation at 430 nm, emission at 485 nm (mTFP) and 528 nm (Venus). The dose-response curves were fitted by OriginPro 2016 software (OriginLab) according to the following formula:1 R=Rmax+Rmin−Rmax/1+([L-2-HG]/Kd)^p where R, Rmin, and Rmax refer to the emission ratio of Venus to mTFP, ratio in the absence of L-2-HG, and ratio at saturation with L-2-HG, respectively. The [L-2-HG], Kd, and p refer to the L-2-HG concentration, apparent dissociation constant, and Hill slope, respectively. Emission spectra were recorded at 430 nm excitation, in steps of 2 nm. Excitation spectra were recorded using emission at 550 nm, excitation from 380 to 535 nm in steps of 2 nm.

In the case of `O=C(O)CC[C@H](O)C(=O)O` [L-2-HG, L-2-Hydroxyglutarate], the Normalized emission ratio ([1]; Fig. 6c, L-2-HG concentration 0.01) is reported as 0.9714 and 1.018 and 1.011, the Normalized emission ratio ([1]; Fig. 6c, L-2-HG concentration 0.1) is reported as 1.002 (2×) and 0.9784 and the Normalized emission ratio ([1]; Fig. 6c, L-2-HG concentration 1) is reported as 1.006 and 0.9618 and 1.048. For the same compound, the Normalized emission ratio ([1]; Fig. 6c, L-2-HG concentration 10) was 1.045 and 1.118 and 1.137, the Normalized emission ratio ([1]; Fig. 6c, L-2-HG concentration 20) was 1.133 and 1.12 and 1.163 and the Normalized emission ratio ([1]; Fig. 6c, L-2-HG concentration 100) was 1.245 and 1.312 and 1.322. The Normalized emission ratio ([1]; Fig. 6c, L-2-HG concentration 200) was 1.303 and 1.3035 and 1.367, the Normalized emission ratio ([1]; Fig. 6c, L-2-HG concentration 1000) was 1.414 and 1.364 and 1.401 and the Normalized emission ratio ([1]; Fig. 6c, L-2-HG concentration 2000) was 1.387 and 1.439 and 1.425. For the same compound, the Normalized emission ratio ([1]; Fig. 6c, L-2-HG concentration 10000) was 1.443 and 1.404 and 1.415, the Normalized emission ratio ([1]; L-2-HG concentration 0.01, Supplementary Fig. 17c) was 0.9984 and 1.014 and 0.9873 and the Normalized emission ratio ([1]; L-2-HG concentration 0.01, Supplementary Fig. 18c) was 0.9865 and 0.9714 and 1.042. For the same compound, the Normalized emission ratio ([1]; L-2-HG concentration 0.1, Supplementary Fig. 17c) was 1 and 1.004 and 1.02, the Normalized emission ratio ([1]; L-2-HG concentration 0.1, Supplementary Fig. 18c) was 0.9909 and 1.037 and 0.9822 and the Normalized emission ratio ([1]; L-2-HG concentration 1, Supplementary Fig. 17c) was 1.007 and 1.056 and 1.0486. For the same compound, the Normalized emission ratio ([1]; L-2-HG concentration 1, Supplementary Fig. 18c) was 0.9662 and 0.9722 and 0.9935, the Normalized emission ratio ([1]; L-2-HG concentration 10, Supplementary Fig. 17c) was 1.22 and 1.297 and 1.235 and the Normalized emission ratio ([1]; L-2-HG concentration 10, Supplementary Fig. 18c) was 0.9752 and 1.056 and 0.9703. For the same compound, the Normalized emission ratio ([1]; L-2-HG concentration 20, Supplementary Fig. 17c) was 1.319 and 1.273 and 1.318, the Normalized emission ratio ([1]; L-2-HG concentration 20, Supplementary Fig. 18c) was 1.003 and 1.067 and 0.9797 and the Normalized emission ratio ([1]; L-2-HG concentration 100, Supplementary Fig. 17c) was 1.392 and 1.387 and 1.431. For the same compound, the Normalized emission ratio ([1]; L-2-HG concentration 100, Supplementary Fig. 18c) was 1.048 and 0.9825 and 0.9723, the Normalized emission ratio ([1]; L-2-HG concentration 200, Supplementary Fig. 17c) was 1.3826 and 1.447 and 1.484 and the Normalized emission ratio ([1]; L-2-HG concentration 200, Supplementary Fig. 18c) was 0.9116 and 1.038 and 1.008. For the same compound, the Normalized emission ratio ([1]; L-2-HG concentration 1000, Supplementary Fig. 17c) was 1.434 and 1.459 and 1.447, the Normalized emission ratio ([1]; L-2-HG concentration 1000, Supplementary Fig. 18c) was 0.9678 and 0.9844 and 0.9663 and the Normalized emission ratio ([1]; L-2-HG concentration 2000, Supplementary Fig. 17c) was 1.455 and 1.475 and 1.401. For the same compound, the Normalized emission ratio ([1]; L-2-HG concentration 2000, Supplementary Fig. 18c) was 0.9838 and 0.9876 and 0.9675, the Normalized emission ratio ([1]; L-2-HG concentration 10000, Supplementary Fig. 17c) was 1.475 and 1.44 and 1.4468 and the Normalized emission ratio ([1]; L-2-HG concentration 10000, Supplementary Fig. 18c) was 0.9794 and 1.103 and 1.106. For the same compound, the “Emission ratio of 528/485” value ([2]; 2-HG concentration 0.01, Suppl. Fig. 9c) was 1.3857 and 1.387 and 1.404, the “Emission ratio of 528/485” value ([2]; 2-HG concentration 0.01, Suppl. Fig. 9d) was 1.655 and 1.676 and 1.693 and the “Emission ratio of 528/485” value ([2]; 2-HG concentration 0.1, Suppl. Fig. 9c) was 1.381 and 1.392 and 1.391. For the same compound, the “Emission ratio of 528/485” value ([2]; 2-HG concentration 0.1, Suppl. Fig. 9d) was 1.641 and 1.674 and 1.689, the “Emission ratio of 528/485” value ([2]; 2-HG concentration 0.2, Suppl. Fig. 9c) was 1.397 and 1.394 and 1.401 and the “Emission ratio of 528/485” value ([2]; 2-HG concentration 0.2, Suppl. Fig. 9d) was 1.675 and 1.688 and 1.698. The “Emission ratio of 528/485” value ([2]; 2-HG concentration 1, Suppl. Fig. 9c) was 1.392 and 1.412 and 1.423, the “Emission ratio of 528/485” value ([2]; 2-HG concentration 1, Suppl. Fig. 9d) was 1.753 and 1.778 and 1.797 and the “Emission ratio of 528/485” value ([2]; 2-HG concentration 2, Suppl. Fig. 9c) was 1.425 and 1.451 and 1.463. The “Emission ratio of 528/485” value ([2]; 2-HG concentration 2, Suppl. Fig. 9d) was 1.892 and 1.897 and 1.889, the “Emission ratio of 528/485” value ([2]; 2-HG concentration 10, Suppl. Fig. 9c) was 1.602 and 1.628 and 1.623 and the “Emission ratio of 528/485” value ([2]; 2-HG concentration 10, Suppl. Fig. 9d) was 2.254 and 2.242 and 2.288. The “Emission ratio of 528/485” value ([2]; 2-HG concentration 20, Suppl. Fig. 9c) was 1.712 and 1.7343 and 1.752, the “Emission ratio of 528/485” value ([2]; 2-HG concentration 20, Suppl. Fig. 9d) was 2.359 and 2.347 and 2.363 and the “Emission ratio of 528/485” value ([2]; 2-HG concentration 100, Suppl. Fig. 9c) was 1.988 and 1.973 and 1.992. The “Emission ratio of 528/485” value ([2]; 2-HG concentration 100, Suppl. Fig. 9d) was 2.568 and 2.652 and 2.688, the “Emission ratio of 528/485” value ([2]; 2-HG concentration 200, Suppl. Fig. 9c) was 2.0666 and 2.05 and 2.077 and the “Emission ratio of 528/485” value ([2]; 2-HG concentration 200, Suppl. Fig. 9d) was 2.563 and 2.676 and 2.688. For the same compound, the “Emission ratio of 528/485” value ([2]; 2-HG concentration 1000, Suppl. Fig. 9c) was 2.162 and 2.183 and 2.153, the “Emission ratio of 528/485” value ([2]; 2-HG concentration 1000, Suppl. Fig. 9d) was 2.635 and 2.6341 and 2.632 and the “Emission ratio of 528/485” value ([2]; 2-HG concentration 2000, Suppl. Fig. 9c) was 2.173 and 2.178 and 2.17.
